Patent publication US6762181B1, “Aminomethylpyrrolidine derivatives having aromatic substituents” (Daiichi Pharmaceutical Co., Ltd., priority 1999, dated 2004)
In brackets after ≈: the same amount, converted by molar mass. Where two headings read alike, the source gives them in different places.

Columns and labels:
Test in all cases: Antibacterial activity (MIC), Japan Society of Chemotherapy standard method
Assay type in all cases: cell-based
[1] = tested on: Str. pneumoniae J24
Experimental: (§1) Antibacterial activities of the compounds of the invention were measured in accordance with the standard method specified by the Japan Society of Chemotherapy, with the results shown in the following table as MIC values (μg/ml). In this connection, MIC values of levofloxacin (LVFX), ciprofloxacin (CPFX) and 5-amino-7-[3-(R)-[1-(S)-aminoethyl]pyrrolidin-1-yl]-6-fluoro-1-[2-(S)-fluoro-1-(R)-cyclopropyl]-8-methyl-1,4-dihydro-4-oxoquinoline-3-carboxylic acid (control drug 1) described in WO 9623782 are also shown for the sake of comparison with the MIC values of the compounds of the invention.

[2] = tested on: E. faecalis ATCC 19433
Experimental: as §1

[3] = tested on: Pr. Vulgaris O8601
Experimental: as §1

[4] = tested on: S. flexneri 2A 5503
Experimental: as §1

[5] = tested on: S. aureus 870307
Experimental: as §1

[6] = tested on: S. epidermidis 56500
Experimental: as §1

[7] = tested on: Ps. aeruginosa 32104
Experimental: as §1

[8] = tested on: S. aureus FDA 209P
Experimental: as §1

[9] = tested on: X. maltophilia IID 1275
Experimental: as §1

[10] = tested on: Ps. aeruginosa 32121
Experimental: as §1

[11] = tested on: K. pneumoniae TYPE 1
Experimental: as §1

[12] = tested on: Str. pyrogenes G-36
Experimental: as §1

[13] = tested on: Ser. marcescens 10100
Experimental: as §1

[14] = tested on: E. coli NIHJ
Experimental: as §1

[15] = Streptococcus pneumoniae, J24, Str. pneumoniae J24, read-out: MIC
[16] = Shigella flexneri, 2A5503, S. flexneri 2A 5503, read-out: MIC
[17] = Staphylococcus epidermidis, read-out: MIC
[18] = Pseudomonas aeruginosa, 32104, Ps. aeruginosa 32104, read-out: MIC
[19] = Staphylococcus aureus, FDA209P, read-out: MIC
[20] = Serratia marcescens, 10100, Ser. marcescens 10100, read-out: MIC
[21] = Escherichia coli, read-out: MIC
[22] = Enterococcus faecalis, ATCC19433, E. faecalis ATCC 19433, read-out: MIC
[23] = Proteus vulgaris, read-out: MIC
[24] = Staphylococcus aureus, 870307, S. aureus 870307, read-out: MIC
[25] = Stenotrophomonas maltophilia, IID1275, X. maltophilia IID 1275, read-out: MIC
[26] = Pseudomonas aeruginosa, 32121, Ps. aeruginosa 32121, read-out: MIC
[27] = Klebsiella pneumoniae, TYPE1, K. pneumoniae TYPE 1, read-out: MIC

Row | SMILES | MIC [1, 15] [µg/mL] | MIC ([2]; E. faecalis ATCC 19433) [µg/mL] | MIC [3] [µg/mL] | MIC [4, 16] [µg/mL] | MIC ([5]; S. aureus 870307) | MIC [6, 17] [µg/mL] | MIC [7, 18] [µg/mL] | MIC [8, 19] [µg/mL] | MIC ([9]; X. maltophilia IID 1275) [µg/mL] | MIC ([10]; Ps. aeruginosa 32121) [µg/mL] | MIC ([11]; K. pneumoniae TYPE 1) [µg/mL] | MIC [13, 20] [µg/mL] | MIC [14, 21] [µg/mL] | MIC [2, 22] [µg/mL] | MIC [3, 23] [µg/mL] | MIC [5, 24] [µg/mL] | MIC [9, 25] [µg/mL] | MIC [10, 26] [µg/mL] | MIC [11, 27] [µg/mL] | MIC ([12]; read-out: MIC) [µg/mL] | other results
1 | Nc1c(F)c(N2CC[C@@H](C(N)c3ccccc3)C2)c(F)c2c1c(=O)c(C(=O)O)cn2[C@@H]1C[C@@H]1F (single isomer, unassigned) [Example 1] | 0.006 (≈ 0.0127 µM) | 0.05 (≈ 0.106 µM) | 0.1 (≈ 0.212 µM) | 0.006 (≈ 0.0127 µM) | 0.025 µg/mL (≈ 0.0529 µM) | ≤ 0.003 | 0.2 (≈ 0.423 µM) | ≤ 0.003 | 0.1 (≈ 0.212 µM) | 0.1 (≈ 0.212 µM) | 0.05 (≈ 0.106 µM) | 0.1 (≈ 0.212 µM) | ≤ 0.003 | – | – | – | – | – | – | – | MIC [12]: 0.013 µg/mL (≈ 0.0275 µM)
2 | Nc1c(F)c(N2CC[C@@H](C(N)c3ccccc3)C2)c(F)c2c1c(=O)c(C(=O)O)cn2[C@@H]1C[C@@H]1F (single isomer, unassigned) [Example 2] | – | 0.006 (≈ 0.0127 µM) | 0.025 (≈ 0.0529 µM) | – | ≦0.003 μg/ml | – | – | – | 0.025 (≈ 0.0529 µM) | 0.025 (≈ 0.0529 µM) | 0.013 (≈ 0.0275 µM) | – | – | – | – | – | – | – | – | – | MIC ([1]; Str. pneumoniae J24): ≦0.003 μg/ml; MIC ([4]; S. flexneri 2A 5503): ≦0.003 μg/ml; MIC [6]: ≦0.003 μg/ml; MIC ([7]; Ps. aeruginosa 32104): 0.1 µg/mL (≈ 0.212 µM); MIC [8]: ≦0.003 μg/ml; MIC [12]: ≦0.003 μg/ml; MIC ([13]; Ser. marcescens 10100): 0.05 µg/mL (≈ 0.106 µM); MIC [14]: ≦0.003 μg/ml
3 | O=C(O)c1cn(C2CC2)c2cc(N3CCNCC3)c(F)cc2c1=O [CPFX, ciprofloxacin, reference compound] | 0.1 (≈ 0.302 µM) | – | – | 0.006 (≈ 0.0181 µM) | – | 0.2 (≈ 0.604 µM) | 0.05 (≈ 0.151 µM) | 0.1 (≈ 0.302 µM) | – | – | – | 0.025 (≈ 0.0754 µM) | ≤ 0.003 | 0.78 (≈ 2.35 µM) | ≤ 0.003 | 3.13 (≈ 9.45 µM) | 0.78 (≈ 2.35 µM) | 0.025 (≈ 0.0754 µM) | 0.025 (≈ 0.0754 µM) | 1.56 (≈ 4.71 µM) | –
4 | Cc1c(N2CC[C@@H]([C@H](C)N)C2)c(F)c(N)c2c(=O)c(C(=O)O)cn([C@@H]3C[C@@H]3F)c12 [Control drug 1, 5-amino-7-[3-(R)-[1-(S)-aminoethyl]pyrrolidin-1-yl]-6-fluoro-1-[2-(S)-fluoro-1-(R)-cyclopropyl]-8-methyl-1,4-dihydro-4-oxoquinoline-3-carboxylic acid, reference compound] | ≤ 0.003 | – | – | 0.006 (≈ 0.0148 µM) | – | ≤ 0.003 | 0.1 (≈ 0.246 µM) | ≤ 0.003 | – | – | – | 0.1 (≈ 0.246 µM) | 0.006 (≈ 0.0148 µM) | 0.025 (≈ 0.0615 µM) | 0.013 (≈ 0.032 µM) | 0.025 (≈ 0.0615 µM) | 0.2 (≈ 0.492 µM) | 0.05 (≈ 0.123 µM) | 0.05 (≈ 0.123 µM) | ≤ 0.003 | –
5 | COc1c(N2CC[C@@H](C(N)c3ccccc3)C2)c(F)cc2c(=O)c(C(=O)O)cn([C@@H]3C[C@@H]3F)c12 (stereo partly drawn) [Example 3, 7-[3-(R)-(1-Amino-1-Phenylmethyl)-1-Pyrrolidinyl]-6-Fluoro-1-[2-(S)-Fluoro-1-(R)-Cyclopropyl]-1,4-Dihydro-8-Methoxy-4-Oxoquinoline-3-Carboxylic Acid] | ≤ 0.003 | – | – | ≤ 0.003 | – | ≤ 0.003 | 0.1 (≈ 0.213 µM) | ≤ 0.003 | – | – | – | 0.05 (≈ 0.106 µM) | ≤ 0.003 | 0.013 (≈ 0.0277 µM) | 0.025 (≈ 0.0532 µM) | ≤ 0.003 | 0.025 (≈ 0.0532 µM) | 0.05 (≈ 0.106 µM) | 0.025 (≈ 0.0532 µM) | ≤ 0.003 | –
